Results: paper PMC8838590, “Recognition of Dimethylarginine Analogues by Tandem Tudor Domain Protein Spindlin1” (Molecules, 2022)
Starred links: 1 amine or outer side, 2 acyl side, 3 side chain; linkers in the order of their positions; H or OH if unused. Non-standard residues stand in square brackets, D forms with d. Residues, ends and D or L forms follow the SMILES beside them. Groups on a side chain read outwards from the residue. X3 = N=C(NCCC[C@H](N[*:1])C(=O)[*:2])N1CCCCC1; X2 = CCN(CC)C(=N)NCCC[C@H](N[*:1])C(=O)[*:2]; X4 = N=C(NCCC[C@H](N[*:1])C(=O)[*:2])N1CCCC1; X5 = CN(C)C(=N)NCCCC[C@H](N[*:1])C(=O)[*:2]; X6 = CCN(C)C(=N)NCCC[C@H](N[*:1])C(=O)[*:2]; X1 = CN(C)C(=N)NCC[C@H](N[*:1])C(=O)[*:2]; Lys(Me3) = C[N+](C)(C)CCCC[C@H](N)C(=O)O; Orn = NCCC[C@H](N)C(=O)O; CO = O=C([*:1])[*:2]

Experiments:
Spindlin1 (SPIN1_49-262) = biological target: T1, Spindlin1 (SPIN1_49-262) (Homo sapiens, UniProt Q9Y657); assay: Isothermal titration calorimetry of 15-mer H3K4me3X8 peptides binding to Spindlin1; conditions: ITC; for ΔH° / −TΔS°: 25.0 °C, 20 mM Tris, 100 mM NaCl pH 8.0, mean ± SD of 3 repeated ITC experiments
T1 construct: SPIN1_49-262 was expressed and purified as described previously; His tag; made in house; host or cells: E. coli BL21
T1 sequence (Q9Y657 49-262): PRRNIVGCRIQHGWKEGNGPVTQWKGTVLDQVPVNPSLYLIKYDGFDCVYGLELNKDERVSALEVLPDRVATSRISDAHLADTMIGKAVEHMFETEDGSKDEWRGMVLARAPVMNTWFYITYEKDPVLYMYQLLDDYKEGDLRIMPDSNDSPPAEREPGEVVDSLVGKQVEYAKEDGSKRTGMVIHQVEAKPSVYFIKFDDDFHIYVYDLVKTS
Method: Spindlin1 was dialysed against ITC buffer containing 100 mM NaCl and 20 mM Tris HCl buffer (pH 8.0).
SPIN1_49-262 was expressed and purified as described previously. Briefly, His-tagged SPIN1 was expressed in E.coli strain BL21 at 37 °C until OD600 = 2.0. Protein expression was induced by the addition of 0.1 mM IPTG, followed by incubation at 18 °C overnight. Bacteria were harvested by centrifugation and subsequent resuspension of the pellet in buffer containing 50 mM Hepes pH 7.5, 500 mM NaCl, 10 mM Imidazole, 5% glycerol, 0.5 mM TCEP, and a protease inhibitor cocktail (Sigma, St. Louis, MO, USA). After lysis and centrifugation, His-tagged SPIN1 was affinity purified by Ni^2+-NTA-agarose chromatography (Cytiva, Marlborough, MA, USA) applying a gradient of imidazole. Subsequent size exclusion chromatography (Superdex 75, Cytiva) was performed with buffer containing 10 mM Hepes pH 7.5, 500 mM NaCl, 5% glycerol, and 0.5 mM TCEP.
Isothermal titration calorimetry was performed at 25 °C on a fully automated Microcal Auto-iTC200 (GE Healthcare Life Sciences, Marlborough, MA, USA). SPIN1_49-262 was dialysed against ITC buffer containing 20 mM Tris, 100 mM NaCl pH 8.0. Titrations were carried out with an initial injection of 0.5 μL, followed by 19 injections of 2 μL at a total concentration of 20 μM SPIN1_49-262 and 150-370 μM peptide. Fitting and analyses of the acquired titration curves were performed with Origin 6.0 (Microcal Inc., Northampton, MA, USA) using the One Set of Binding Sites model.

[1] = biological target: H3K4me3K9me3 peptide (Homo sapiens) (UniProt P68431); conditions: cited from earlier work
[2] = biological target: H3K4me3R8me2s peptide (Homo sapiens) (UniProt P68431); conditions: cited from earlier work
[3] = biological target: H3K4me3R8me2a 10-mer peptide (Homo sapiens) (UniProt P68431); conditions: cited from earlier work
[4] = biological target: H3K4me3R8me1 peptide (Homo sapiens) (UniProt P68431); conditions: cited from earlier work
[5] = biological target: H4K20me3 peptide (Homo sapiens) (UniProt P62805); conditions: cited from earlier work

Chain of Spindlin1 (Q9Y657 whole entry): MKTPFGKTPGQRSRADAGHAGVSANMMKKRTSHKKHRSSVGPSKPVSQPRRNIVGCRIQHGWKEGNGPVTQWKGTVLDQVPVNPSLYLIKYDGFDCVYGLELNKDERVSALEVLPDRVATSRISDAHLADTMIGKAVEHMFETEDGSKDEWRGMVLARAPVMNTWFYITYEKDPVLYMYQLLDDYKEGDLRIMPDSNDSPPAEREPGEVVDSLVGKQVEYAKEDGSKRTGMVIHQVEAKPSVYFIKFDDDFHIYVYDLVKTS

C[C@H](N)C(=O)N[C@@H](CCCNC(=N)N)C(=O)N[C@H](C(=O)N[C@@H](CCCC[N+](C)(C)C)C(=O)N[C@@H](CCC(N)=O)C(=O)N[C@H](C(=O)N[C@@H](C)C(=O)N[C@@H](CCNC(=N)N(C)C)C(=O)N[C@@H](CCCCN)C(=O)N[C@@H](CO)C(=O)N[C@H](C(=O)NCC(=O)NCC(=O)N[C@@H](CCCCN)C(=O)N[C@@H](C)C(N)=O)[C@@H](C)O)[C@@H](C)O)[C@@H](C)O [H3K4me3nR8me2a] (H-ART[Lys(Me3)]QTA[X1]KSTGGKA-NH2)
ΔH° (Spindlin1 (SPIN1_49-262); SD): -16.9 ± 1.3 kcal/mol | −TΔS° (Spindlin1 (SPIN1_49-262); SD): 6.8 ± 1.2 kcal/mol

C[C@H](N)C(=O)N[C@@H](CCCNC(=N)N)C(=O)N[C@H](C(=O)N[C@@H](CCCC[N+](C)(C)C)C(=O)N[C@@H](CCC(N)=O)C(=O)N[C@H](C(=O)N[C@@H](C)C(=O)N[C@@H](CCCCNC(=N)N(C)C)C(=O)N[C@@H](CCCCN)C(=O)N[C@@H](CO)C(=O)N[C@H](C(=O)NCC(=O)NCC(=O)N[C@@H](CCCCN)C(=O)N[C@@H](C)C(N)=O)[C@@H](C)O)[C@@H](C)O)[C@@H](C)O [H3K4me3hR8me2a] (H-ART[Lys(Me3)]QTA[X5]KSTGGKA-NH2)
ΔH° (Spindlin1 (SPIN1_49-262); SD): -20.9 ± 0.7 kcal/mol | −TΔS° (Spindlin1 (SPIN1_49-262); SD): 11.0 ± 0.7 kcal/mol

Spindlin1 (from UniProt Q9Y657)
Kd [1]: 0.016 µM | Kd [2]: 0.066 µM | Kd [3]: 0.045 µM | Kd [4]: 0.139 µM | Kd [5]: 0.8 µM

C[C@H](N)C(=O)N[C@@H](CCCNC(=N)N)C(=O)N[C@H](C(=O)N[C@@H](CCCC[N+](C)(C)C)C(=O)N[C@@H](CCC(N)=O)C(=O)N[C@H](C(=O)N[C@@H](C)C(=O)N[C@@H](CCCNC(=N)N(C)C)C(=O)N[C@@H](CCCCN)C(=O)N[C@@H](CO)C(=O)N[C@H](C(=O)NCC(=O)NCC(=O)N[C@@H](CCCCN)C(=O)N[C@@H](C)C(N)=O)[C@@H](C)O)[C@@H](C)O)[C@@H](C)O [H3K4me3R8me2a]
ΔH° (Spindlin1 (SPIN1_49-262)): -17.3 kcal/mol | −TΔS° (Spindlin1 (SPIN1_49-262)): 7.0 kcal/mol | ΔH° (Spindlin1 (SPIN1_49-262); SD): -17.3 ± 1.9 kcal/mol | −TΔS° (Spindlin1 (SPIN1_49-262); SD): 7.0 ± 1.9 kcal/mol

C[C@H](N)C(=O)N[C@@H](CCCNC(=N)N)C(=O)N[C@H](C(=O)N[C@@H](CCCC[N+](C)(C)C)C(=O)N[C@@H](CCC(N)=O)C(=O)N[C@H](C(=O)N[C@@H](C)C(=O)N[C@@H](CCCNC(=N)N1CCCCC1)C(=O)N[C@@H](CCCCN)C(=O)N[C@@H](CO)C(=O)N[C@H](C(=O)NCC(=O)NCC(=O)N[C@@H](CCCCN)C(=O)N[C@@H](C)C(N)=O)[C@@H](C)O)[C@@H](C)O)[C@@H](C)O [H3K4me3R8pip] (H-ART[Lys(Me3)]QTA[X3]KSTGGKA-NH2)
ΔH° (Spindlin1 (SPIN1_49-262); SD): -20.9 ± 0.3 kcal/mol | −TΔS° (Spindlin1 (SPIN1_49-262); SD): 11.2 ± 0.1 kcal/mol

CCN(CC)C(=N)NCCC[C@H](NC(=O)[C@H](C)NC(=O)[C@@H](NC(=O)[C@H](CCC(N)=O)NC(=O)[C@H](CCCC[N+](C)(C)C)NC(=O)[C@@H](NC(=O)[C@H](CCCNC(=N)N)NC(=O)[C@H](C)N)[C@@H](C)O)[C@@H](C)O)C(=O)N[C@@H](CCCCN)C(=O)N[C@@H](CO)C(=O)N[C@H](C(=O)NCC(=O)NCC(=O)N[C@@H](CCCCN)C(=O)N[C@@H](C)C(N)=O)[C@@H](C)O [H3K4me3R8et2a] (H-ART[Lys(Me3)]QTA[X2]KSTGGKA-NH2)
ΔH° (Spindlin1 (SPIN1_49-262); SD): -19.3 ± 0.6 kcal/mol | −TΔS° (Spindlin1 (SPIN1_49-262); SD): 9.3 ± 0.6 kcal/mol

CCN(C)C(=N)NCCC[C@H](NC(=O)[C@H](C)NC(=O)[C@@H](NC(=O)[C@H](CCC(N)=O)NC(=O)[C@H](CCCC[N+](C)(C)C)NC(=O)[C@@H](NC(=O)[C@H](CCCNC(=N)N)NC(=O)[C@H](C)N)[C@@H](C)O)[C@@H](C)O)C(=O)N[C@@H](CCCCN)C(=O)N[C@@H](CO)C(=O)N[C@H](C(=O)NCC(=O)NCC(=O)N[C@@H](CCCCN)C(=O)N[C@@H](C)C(N)=O)[C@@H](C)O [H3K4me3R8etme] (H-ART[Lys(Me3)]QTA[X6]KSTGGKA-NH2)
ΔH° (Spindlin1 (SPIN1_49-262); SD): -20.8 ± 0.6 kcal/mol | −TΔS° (Spindlin1 (SPIN1_49-262); SD): 11.2 ± 0.6 kcal/mol

C[C@H](N)C(=O)N[C@@H](CCCNC(=N)N)C(=O)N[C@H](C(=O)N[C@@H](CCCC[N+](C)(C)C)C(=O)N[C@@H](CCC(N)=O)C(=O)N[C@H](C(=O)N[C@@H](C)C(=O)N[C@@H](CCCNC(=O)N(C)C)C(=O)N[C@@H](CCCCN)C(=O)N[C@@H](CO)C(=O)N[C@H](C(=O)NCC(=O)NCC(=O)N[C@@H](CCCCN)C(=O)N[C@@H](C)C(N)=O)[C@@H](C)O)[C@@H](C)O)[C@@H](C)O [H3K4me3Cit8me2] (H-ART[Lys(Me3)]QTA[Orn]([CO-NMe2])KSTGGKA-NH2)
ΔH° (Spindlin1 (SPIN1_49-262); SD): -15.6 ± 0.3 kcal/mol | −TΔS° (Spindlin1 (SPIN1_49-262); SD): 5.9 ± 0.2 kcal/mol | ΔΔH° (Spindlin1 (SPIN1_49-262); relative to H3K4me3R8me2a): 1.7 kcal/mol | −TΔΔS° (Spindlin1 (SPIN1_49-262); relative to H3K4me3R8me2a): -1.1 kcal/mol

C[C@H](N)C(=O)N[C@@H](CCCNC(=N)N)C(=O)N[C@H](C(=O)N[C@@H](CCCC[N+](C)(C)C)C(=O)N[C@@H](CCC(N)=O)C(=O)N[C@H](C(=O)N[C@@H](C)C(=O)N[C@@H](CCCNC(=N)N1CCCC1)C(=O)N[C@@H](CCCCN)C(=O)N[C@@H](CO)C(=O)N[C@H](C(=O)NCC(=O)NCC(=O)N[C@@H](CCCCN)C(=O)N[C@@H](C)C(N)=O)[C@@H](C)O)[C@@H](C)O)[C@@H](C)O [H3K4me3R8pyr] (H-ART[Lys(Me3)]QTA[X4]KSTGGKA-NH2)
ΔH° (Spindlin1 (SPIN1_49-262); SD): -22.5 ± 0.4 kcal/mol | −TΔS° (Spindlin1 (SPIN1_49-262); SD): 13.0 ± 0.5 kcal/mol
